Results as given in publication PMC12274840 (The Journal of Biological Chemistry, 2025).
Values after ≈ are worked out from the molar mass of the structure shown. Read-outs that look alike come from different tables or passages of the source.

Tests used:
[1] = test system: E. coli KA797 cells carrying NmcA position 105 library; format: cell-based
[2] = test system: E. coli KA797 cells carrying pUK21 with TEM-1 WT (Sec); assay: microbe, parasite or virus in culture; format: cell-based; settings: Escherichia coli, antibiotic alone
[3] = test system: E. coli KA797 cells carrying pUK21 with KPC-2 (Tat); assay: microbe, parasite or virus in culture; format: cell-based; settings: Escherichia coli, antibiotic alone
TEM-1 Y105G = TEM-1 Y105G (Escherichia coli, UniProt P62593, Y103G); assay: Steady-state kinetics of substrate hydrolysis, TEM-1 Y105G; format: biochemical; settings: phosphate buffer pH 6.4, 25 °C
[4] = test system: E. coli KA797 cells carrying TEM-1 position 105 library; format: cell-based; settings: for Fi AMP AVG: average of replicates
[5] = test system: E. coli KA797 cells carrying pUK21 with BlaC WT (Tat); assay: microbe, parasite or virus in culture; format: cell-based; settings: Escherichia coli, antibiotic alone
TEM-1 WT = TEM-1 WT (Escherichia coli, UniProt P62593)
[6] = test system: E. coli KA797 cells carrying pUK21 with NmcA (pelB/Sec); assay: microbe, parasite or virus in culture; format: cell-based; settings: Escherichia coli, antibiotic alone
BlaC WT = target: T1, BlaC WT (Mycobacterium tuberculosis, UniProt P9WKD3); format: biochemical; settings: pH 6.4
T1 construct: correspond to residue numbers 41-307 of BlaC (Uniprot entry P9WKD3-1); His tag with TEV cleavage site (N); made in house; host or cells: E. coli BL21 (DE3) pLysS

CTX-M-14 Y105G = target: T2, CTX-M-14 Y105G (Escherichia coli, UniProt Q9L5C7, Y108G); format: biochemical
T2 construct: 29 to 291 of CTX-M-14 (Q9L5C7); His tag with TEV cleavage site (N); made in house; host or cells: E. coli BL21 (DE3) pLysS

[7] = read-out: KM^app, phosphate buffer pH 6.4, 25 °C

In the case of `CC1(C)S[C@@H]2[C@H](NC(=O)[C@H](N)c3ccccc3)C(=O)N2[C@H]1C(=O)O` [ampicillin], the “Fi AVG (average fitness of replicates)” value ([1]; NmcA AA 105 Ala) is reported as -0.604, the “Significance of average fitness” value ([1]; NmcA AA 105 Ala) is reported as “-” and the “Fi AVG (average fitness of replicates)” value ([1]; NmcA AA 105 Arg) is reported as -0.595. For the same compound, the “Significance of average fitness” value ([1]; NmcA AA 105 Arg) was “-”, the “Fi AVG (average fitness of replicates)” value ([1]; NmcA AA 105 Asn) was -0.193 and the “Significance of average fitness” value ([1]; NmcA AA 105 Asn) was “-”. The “Fi AVG (average fitness of replicates)” value ([1]; NmcA AA 105 Asp) was -0.514, the “Significance of average fitness” value ([1]; NmcA AA 105 Asp) was “-” and the “Fi AVG (average fitness of replicates)” value ([1]; NmcA AA 105 Cys) was -0.572. The “Significance of average fitness” value ([1]; NmcA AA 105 Cys) was “-”, the “Fi AVG (average fitness of replicates)” value ([1]; NmcA AA 105 Gln) was -0.362 and the “Significance of average fitness” value ([1]; NmcA AA 105 Gln) was “-”. For the same compound, the “Fi AVG (average fitness of replicates)” value ([1]; NmcA AA 105 Glu) was -0.554, the “Significance of average fitness” value ([1]; NmcA AA 105 Glu) was “-” and the “Fi AVG (average fitness of replicates)” value ([1]; NmcA AA 105 Gly) was -0.012. The “Fi AVG (average fitness of replicates)” value ([1]; NmcA AA 105 His) was 0.000, the “Fi AVG (average fitness of replicates)” value ([1]; NmcA AA 105 Ile) was -0.668 and the “Significance of average fitness” value ([1]; NmcA AA 105 Ile) was “-”. The “Fi AVG (average fitness of replicates)” value ([1]; NmcA AA 105 Leu) was -0.515, the “Significance of average fitness” value ([1]; NmcA AA 105 Leu) was “-” and the “Fi AVG (average fitness of replicates)” value ([1]; NmcA AA 105 Lys) was -0.761. For the same compound, the “Significance of average fitness” value ([1]; NmcA AA 105 Lys) was “-”, the “Fi AVG (average fitness of replicates)” value ([1]; NmcA AA 105 Met) was -0.296 and the “Significance of average fitness” value ([1]; NmcA AA 105 Met) was “-”. For the same compound, the “Fi AVG (average fitness of replicates)” value ([1]; NmcA AA 105 Phe) was -0.065, the “Fi AVG (average fitness of replicates)” value ([1]; NmcA AA 105 Pro) was -0.462 and the “Significance of average fitness” value ([1]; NmcA AA 105 Pro) was “-”. The “Fi AVG (average fitness of replicates)” value ([1]; NmcA AA 105 Ser) was -0.413, the “Significance of average fitness” value ([1]; NmcA AA 105 Ser) was “-” and the “Fi AVG (average fitness of replicates)” value ([1]; NmcA AA 105 Thr) was -0.905. The “Significance of average fitness” value ([1]; NmcA AA 105 Thr) was “-”, the “Fi AVG (average fitness of replicates)” value ([1]; NmcA AA 105 Trp) was 0.277 and the “Significance of average fitness” value ([1]; NmcA AA 105 Trp) was “+”. For the same compound, the “Fi AVG (average fitness of replicates)” value ([1]; NmcA AA 105 Tyr) was 0.049, the “Fi AVG (average fitness of replicates)” value ([1]; NmcA AA 105 Val) was -0.608 and the “Significance of average fitness” value ([1]; NmcA AA 105 Val) was “-”. The “WT abs Fi 1 (absolute fitness)” value ([1]; NmcA WT, replicate 1) was 0.229, the “WT abs Fi 2 (absolute fitness)” value ([1]; NmcA WT, replicate 2) was 0.425 and the MIC [2] was 12800 mg/L (≈ 36600 µM). The MIC [3] was 200 mg/L (≈ 572 µM), the kcat (TEM-1 Y105G) was 601 ± 9 s⁻¹ and the “Significance (Average fitnes AMP)” value ([4]; AA 105 Ala) was “-”. For the same compound, the “Fi AMP AVG” value ([4]; AA 105 Ala) was -0.222, the “Fi AMP 1” value ([4]; AA 105 Ala, replicate 1) was -0.205 and the “Fi AMP 2” value ([4]; AA 105 Ala, replicate 2) was -0.239. The “Significance (Average fitnes AMP)” value ([4]; AA 105 Arg) was “-”, the “Fi AMP AVG” value ([4]; AA 105 Arg) was -0.576 and the “Fi AMP 1” value ([4]; AA 105 Arg, replicate 1) was -0.568. The “Fi AMP 2” value ([4]; AA 105 Arg, replicate 2) was -0.584, the “Significance (Average fitnes AMP)” value ([4]; AA 105 Asn) was “-” and the “Fi AMP AVG” value ([4]; AA 105 Asn) was -0.070. The “Fi AMP 1” value ([4]; AA 105 Asn, replicate 1) was -0.049, the “Fi AMP 2” value ([4]; AA 105 Asn, replicate 2) was -0.091 and the “Significance (Average fitnes AMP)” value ([4]; AA 105 Asp) was “-”. For the same compound, the “Fi AMP AVG” value ([4]; AA 105 Asp) was -0.429, the “Fi AMP 1” value ([4]; AA 105 Asp, replicate 1) was -0.401 and the “Fi AMP 2” value ([4]; AA 105 Asp, replicate 2) was -0.457. The “Significance (Average fitnes AMP)” value ([4]; AA 105 Cys) was “-”, the “Fi AMP AVG” value ([4]; AA 105 Cys) was -0.587 and the “Fi AMP 1” value ([4]; AA 105 Cys, replicate 1) was -0.602. For the same compound, the “Fi AMP 2” value ([4]; AA 105 Cys, replicate 2) was -0.572, the “Significance (Average fitnes AMP)” value ([4]; AA 105 Gln) was “-” and the “Fi AMP AVG” value ([4]; AA 105 Gln) was -0.282. The “Fi AMP 1” value ([4]; AA 105 Gln, replicate 1) was -0.271, the “Fi AMP 2” value ([4]; AA 105 Gln, replicate 2) was -0.293 and the “Significance (Average fitnes AMP)” value ([4]; AA 105 Glu) was “-”. The “Fi AMP AVG” value ([4]; AA 105 Glu) was -0.667, the “Fi AMP 1” value ([4]; AA 105 Glu, replicate 1) was -0.663 and the “Fi AMP 2” value ([4]; AA 105 Glu, replicate 2) was -0.672. The “Significance (Average fitnes AMP)” value ([4]; AA 105 Gly) was “-”, the “Fi AMP AVG” value ([4]; AA 105 Gly) was -0.061 and the “Fi AMP 1” value ([4]; AA 105 Gly, replicate 1) was -0.036. For the same compound, the “Fi AMP 2” value ([4]; AA 105 Gly, replicate 2) was -0.087, the “Significance (Average fitnes AMP)” value ([4]; AA 105 His) was “-” and the “Fi AMP AVG” value ([4]; AA 105 His) was -0.071. The “Fi AMP 1” value ([4]; AA 105 His, replicate 1) was -0.065, the “Fi AMP 2” value ([4]; AA 105 His, replicate 2) was -0.077 and the “Significance (Average fitnes AMP)” value ([4]; AA 105 Ile) was “-”. For the same compound, the “Fi AMP AVG” value ([4]; AA 105 Ile) was -0.580, the “Fi AMP 1” value ([4]; AA 105 Ile, replicate 1) was -0.558 and the “Fi AMP 2” value ([4]; AA 105 Ile, replicate 2) was -0.602. For the same compound, the “Significance (Average fitnes AMP)” value ([4]; AA 105 Leu) was “-”, the “Fi AMP AVG” value ([4]; AA 105 Leu) was -0.490 and the “Fi AMP 1” value ([4]; AA 105 Leu, replicate 1) was -0.459. The “Fi AMP 2” value ([4]; AA 105 Leu, replicate 2) was -0.521, the “Significance (Average fitnes AMP)” value ([4]; AA 105 Lys) was “-” and the “Fi AMP AVG” value ([4]; AA 105 Lys) was -0.754. The “Fi AMP 1” value ([4]; AA 105 Lys, replicate 1) was -0.749, the “Fi AMP 2” value ([4]; AA 105 Lys, replicate 2) was -0.759 and the “Significance (Average fitnes AMP)” value ([4]; AA 105 Met) was “-”. For the same compound, the “Fi AMP AVG” value ([4]; AA 105 Met) was -0.188, the “Fi AMP 1” value ([4]; AA 105 Met, replicate 1) was -0.138 and the “Fi AMP 2” value ([4]; AA 105 Met, replicate 2) was -0.238. The “Significance (Average fitnes AMP)” value ([4]; AA 105 Phe) was “-”, the “Fi AMP AVG” value ([4]; AA 105 Phe) was -0.048 and the “Fi AMP 1” value ([4]; AA 105 Phe, replicate 1) was -0.041. For the same compound, the “Fi AMP 2” value ([4]; AA 105 Phe, replicate 2) was -0.054, the “Significance (Average fitnes AMP)” value ([4]; AA 105 Pro) was “-” and the “Fi AMP AVG” value ([4]; AA 105 Pro) was -0.152. The “Fi AMP 1” value ([4]; AA 105 Pro, replicate 1) was -0.157, the “Fi AMP 2” value ([4]; AA 105 Pro, replicate 2) was -0.147 and the “Significance (Average fitnes AMP)” value ([4]; AA 105 Ser) was “-”. The “Fi AMP AVG” value ([4]; AA 105 Ser) was -0.203, the “Fi AMP 1” value ([4]; AA 105 Ser, replicate 1) was -0.219 and the “Fi AMP 2” value ([4]; AA 105 Ser, replicate 2) was -0.186. For the same compound, the “Significance (Average fitnes AMP)” value ([4]; AA 105 Thr) was “-”, the “Fi AMP AVG” value ([4]; AA 105 Thr) was -0.391 and the “Fi AMP 1” value ([4]; AA 105 Thr, replicate 1) was -0.402. For the same compound, the “Fi AMP 2” value ([4]; AA 105 Thr, replicate 2) was -0.379, the “Fi AMP AVG” value ([4]; AA 105 Trp) was 0.019 and the “Fi AMP 1” value ([4]; AA 105 Trp, replicate 1) was 0.033. For the same compound, the “Fi AMP 2” value ([4]; AA 105 Trp, replicate 2) was 0.006, the “Fi AMP AVG” value ([4]; AA 105 Tyr) was 0.000 and the “Fi AMP 1” value ([4]; AA 105 Tyr, replicate 1) was 0.000. The “Fi AMP 2” value ([4]; AA 105 Tyr, replicate 2) was 0.000, the “Significance (Average fitnes AMP)” value ([4]; AA 105 Val) was “-” and the “Fi AMP AVG” value ([4]; AA 105 Val) was -0.403. For the same compound, the “Fi AMP 1” value ([4]; AA 105 Val, replicate 1) was -0.371, the “Fi AMP 2” value ([4]; AA 105 Val, replicate 2) was -0.435 and the “WT abs Fi 1” value ([4]; absolute fitness of TEM-1 WT, AMP, replicate 1) was 0.351. For the same compound, the “WT abs Fi 2” value ([4]; absolute fitness of TEM-1 WT, AMP, replicate 2) was 0.374, the MIC [5] was 50 mg/L (≈ 143 µM) and the kcat (TEM-1 WT; phosphate buffer pH 6.4, 25 °C) was 2359 ± 16 s⁻¹. For the same compound, the Km (TEM-1 WT; [7]) was 72 ± 1 µM, the MIC [6] was 400 mg/L (≈ 1140 µM) and the kcat (BlaC WT) was 14 ± 2 s⁻¹. The Km (BlaC WT; read-out: KM^app) was 68 ± 3 µM, the kcat (CTX-M-14 Y105G; phosphate buffer pH 6.4, 25 °C) was 48 ± 2 s⁻¹ and the Km (CTX-M-14 Y105G; [7]) was 297 ± 10 µM.
